Measured values as given in patent US9204653B2, “5-fluoro pyrimidine derivatives” (DOW AGROSCIENCES LLC, priority 2008, dated 2015).

System: Mycosphaerella graminicola; Anamorph: Septoria tritici; Bayer Code SEPTTR
Test: Leaf blotch of wheat, foliar fungicide treatment, one day protectant (1DP) or three day curative (3DC)
Assay type: in vivo, Septoria tritici on wheat plants (variety Yuma)
Settings: Zymoseptoria tritici, 24 h, % disease control rating, one day protectant

SMILES	pest or weed control at 50 ppm	pest or weed control at 200 ppm
Fc1cnc(OC2CCCCC2)nc1NCCc1ccccc1 [Compound 837]	0 to 25%	0 to 25%
Fc1cnc(OCc2ccc(Cl)cc2Cl)nc1NCc1cccs1 [Compound 838]		76 to 100%
Fc1cnc(OCc2ccc3c(c2)OCO3)nc1NCc1cccs1 [Compound 839]		76 to 100%
Fc1ccc(COc2ncc(F)c(NCc3ccc(Cl)cc3)n2)cc1 [Compound 840]	51 to 75%	76 to 100%
Fc1cnc(OC2CCCCC2)nc1NCc1ccc2c(c1)OCO2 [Compound 841]	51 to 75%	76 to 100%
Fc1cnc(OCc2ccc(Cl)cc2)nc1NCc1ccc2c(c1)OCO2 [Compound 842]	76 to 100%	76 to 100%
Fc1cnc(OCCc2ccccc2)nc1NCc1cccs1 [Compound 843]	26 to 50%	76 to 100%
Cc1ccc(COc2ncc(F)c(NCc3ccc(Cl)nc3)n2)cc1 [Compound 844]	76 to 100%	76 to 100%
Nc1nc(OCC2CCCCC2)ncc1F [Compound 846]	0 to 25%	26 to 50%
Nc1nc(OCc2c(Cl)cccc2Cl)ncc1F [Compound 847]	76 to 100%	
Nc1nc(OC2CCCCC2)ncc1F [Compound 848]	0 to 25%	0 to 25%
COc1ncc(F)c(N)n1 [Compound 850]	0 to 25%	51 to 75%
Fc1ccc(COc2ncc(F)c(NCc3ccc(Cl)cc3)n2)cc1F [Compound 851]	76 to 100%	76 to 100%
Fc1ccccc1COc1ncc(F)c(NC2CC2)n1 [Compound 852]	51 to 75%	76 to 100%
CCOc1ncc(F)c(N)n1 [Compound 853]	0 to 25%	0 to 25%
Cc1ccc(COc2ncc(F)c(NCc3ccc4c(c3)OCO4)n2)cc1 [Compound 854]	51 to 75%	76 to 100%
Fc1cnc(OCc2ccc(OC(F)(F)F)cc2)nc1NC1CC1 [Compound 855]		76 to 100%
Nc1nc(OCc2ccncc2)ncc1F [Compound 856]		76 to 100%
Fc1cnc(OCc2ccco2)nc1NCc1ccc2c(c1)OCO2 [Compound 859]	76 to 100%	76 to 100%
Fc1cnc(OCC(F)(F)F)nc1NCCc1ccccc1 [Compound 861]	0 to 25%	26 to 50%
Fc1cnc(OCCc2ccccc2)nc1NCCc1ccccc1 [Compound 862]	51 to 75%	76 to 100%
Fc1ccccc1CNc1nc(OCc2ccc(Cl)cc2Cl)ncc1F [Compound 863]	76 to 100%	76 to 100%
Nc1nc(OCC(F)(F)F)ncc1F [Compound 864]	0 to 25%	26 to 50%
COc1ccccc1COc1ncc(F)c(NCc2ccccc2F)n1 [Compound 865]	26 to 50%	76 to 100%
Fc1cnc(OCc2cccs2)nc1NC1CC1 [Compound 866]	0 to 25%	76 to 100%

SMILES	pest or weed control at 50 ppm	pest or weed control at 200 ppm
Fc1ccc(COc2ncc(F)c(NCc3cccs3)n2)cc1 [Compound 867]	76 to 100%	76 to 100%
Fc1cnc(OCc2cc(Cl)cc(Cl)c2)nc1NCc1ccc(Cl)cc1 [Compound 868]	51 to 75%	76 to 100%
COc1ccccc1COc1ncc(F)c(NCc2cccs2)n1 [Compound 869]		76 to 100%
Fc1cnc(OCc2cc(Cl)cc(Cl)c2)nc1NC1CC1 [Compound 870]		76 to 100%
Cc1ccc(CNc2nc(OCCc3ccccc3)ncc2F)cc1 [Compound 871]	0 to 25%	26 to 50%
Cc1ccc(CNc2nc(OCC(F)(F)F)ncc2F)cc1 [Compound 872]	26 to 50%	51 to 75%
Fc1cnc(OCc2ccco2)nc1NCc1ccc(Cl)nc1 [Compound 873]	0 to 25%	0 to 25%
Fc1cnc(OCc2cccs2)nc1NCc1ccc(Cl)nc1 [Compound 874]	0 to 25%	0 to 25%
Cc1ccc(CNc2nc(OC3CCCCC3)ncc2F)cc1 [Compound 875]	0 to 25%	76 to 100%
Fc1cnc(OCc2c(Cl)cccc2Cl)nc1NC1CC1 [Compound 877]		76 to 100%
Nc1nc(OCc2cccc(Oc3ccccc3)c2)ncc1F [Compound 878]	76 to 100%	76 to 100%
Fc1cnc(OCc2ccccc2Cl)nc1NCc1ccc(Cl)cc1 [Compound 879]	76 to 100%	76 to 100%
Fc1cnc(OCCc2ccccc2)nc1NCc1ccc(Cl)nc1 [Compound 880]	0 to 25%	26 to 50%
Cc1ccc(COc2ncc(F)c(NC3CC3)n2)cc1 [Compound 881]	76 to 100%	76 to 100%
Fc1ccc(COc2ncc(F)c(NCc3ccc4c(c3)OCO4)n2)cc1 [Compound 882]	76 to 100%	76 to 100%
Fc1ccccc1CNc1nc(OCc2ccc(Cl)c(Cl)c2)ncc1F [Compound 883]	76 to 100%	76 to 100%
CCOCCOc1cccc(COc2ncc(F)c(NC(C)=O)n2)c1 [Compound 884]	76 to 100%	76 to 100%
Fc1cnc(OCc2ccc(Cl)cc2)nc1NCC(F)(F)F [Compound 885]	26 to 50%	51 to 75%
Cc1cnc(CNc2nc(OCc3ccc(Cl)cc3)ncc2F)cn1 [Compound 886]	76 to 100%	76 to 100%
Fc1cnc(OCc2cccc(Cl)c2)nc1NC1CC1 [Compound 887]		76 to 100%
Fc1ccccc1CNc1nc(OCc2ccccn2)ncc1F [Compound 888]	0 to 25%	51 to 75%
Fc1ccc(COc2ncc(F)c(NCc3cccs3)n2)cc1F [Compound 890]		76 to 100%
Nc1nc(OCc2ccccn2)ncc1F [Compound 891]	76 to 100%	76 to 100%
Cc1ccc(COc2ncc(F)c(NCc3ccc(Cl)cc3)n2)cc1 [Compound 892]	51 to 75%	76 to 100%
Fc1ccccc1CNc1nc(OCc2ccccc2Cl)ncc1F [Compound 893]	76 to 100%	76 to 100%

SMILES	pest or weed control at 50 ppm	pest or weed control at 200 ppm
Fc1cnc(OCc2ccc(C(F)(F)F)cc2)nc1NCc1cccs1 [Compound 896]		76 to 100%
Fc1ccc(COc2ncc(F)c(N3CCOCC3)n2)cc1 [Compound 897]	0 to 25%	51 to 75%
Fc1cnc(OCc2ccco2)nc1NC1CC1 [Compound 898]	0 to 25%	0 to 25%
Fc1cnc(OCc2ccco2)nc1NCc1cccs1 [Compound 899]	26 to 50%	76 to 100%
Cc1cnc(CNc2nc(OCc3ccc(F)cc3)ncc2F)cn1 [Compound 900]	51 to 75%	76 to 100%
Fc1ccc(COc2ncc(F)c(NCc3ccc(Cl)nc3)n2)cc1 [Compound 901]	51 to 75%	76 to 100%
Fc1cnc(OCc2ccncc2)nc1NCc1cccs1 [Compound 902]		76 to 100%
Fc1cnc(OC2CCCCC2)nc1NCc1ccc(Cl)cc1 [Compound 903]	0 to 25%	76 to 100%
Fc1cnc(OCCc2ccccc2)nc1NCc1ccc2c(c1)OCO2 [Compound 904]	0 to 25%	26 to 50%
Fc1cnc(OCC(F)(F)F)nc1NCc1ccc(Cl)cc1 [Compound 905]	26 to 50%	51 to 75%
COc1ccc(COc2ncc(F)c(NCc3cccs3)n2)cc1 [Compound 906]		76 to 100%
Fc1ccccc1CNc1nc(OCc2cc(Cl)cc(Cl)c2)ncc1F [Compound 907]	51 to 75%	76 to 100%
Fc1cnc(OCc2ccc(Cl)cc2)nc1NCCc1ccccc1 [Compound 908]	76 to 100%	76 to 100%
Fc1cnc(OCc2ccc(Cl)c(Cl)c2)nc1NC1CC1 [Compound 909]		76 to 100%
Fc1cccc(COc2ncc(F)c(NCc3cccs3)n2)c1 [Compound 910]		76 to 100%
Fc1cnc(OCCc2ccccc2)nc1NCc1ccc(Cl)cc1 [Compound 911]	0 to 25%	0 to 25%
Fc1cnc(OCc2cccc(Cl)c2)nc1NCc1cccs1 [Compound 912]		76 to 100%
Fc1ccccc1CNc1nc(OCc2ccncc2)ncc1F [Compound 913]	76 to 100%	76 to 100%
Cc1ccc(CNc2nc(OCc3ccco3)ncc2F)cc1 [Compound 914]	0 to 25%	76 to 100%
Fc1cnc(OCC(F)(F)F)nc1NCc1ccc(Cl)nc1 [Compound 915]	0 to 25%	0 to 25%
Cc1ccc(COc2ncc(F)c(NCc3cnc(C)cn3)n2)cc1 [Compound 916]	76 to 100%	76 to 100%
C=CCOc1ncc(F)c(NCc2ccccc2F)n1 [Compound 917]	0 to 25%	51 to 75%
Fc1ccccc1CNc1nc(OCc2ccc(Cl)cc2)ncc1F [Compound 918]	76 to 100%	76 to 100%
Fc1cnc(OCc2ccc3c(c2)OCO3)nc1NC1CC1 [Compound 919]		76 to 100%
